From patent EP0359821A1, “METHOD OF STERILIZING PLANT ANTHERS” (priority 1988, dated 1989) come the findings set out here.

The test system of series [1] is Winterweizens Sorte Mironovskaya 808. The series is described as follows: Field trial of gametocidal activity (anther sterilisation), winter wheat. Type of series: in vivo, Weizen. As to conditions: 2% aqueous emulsion, 20 kg/ha; for response vs control in vivo at 20000 g/ha: control = 100, read-out: Prozentsatz des Ansetzens bei freier Bestäubung.
The subject of series [2] is Diploider Roggen Sorte Chulpan. The series is described as follows: Field trial of gametocidal activity, diploid rye Chulpan. It is filed as in vivo. As to conditions: single compounds, 1% aqueous emulsion, 10 kg/ha; for Anzahl von Körnern der Ähre bei freier Bestäubung / Anzahl von Körnern der Ähre im Isolator / percent sterility at 10000 g/ha: V. or VI. period; for percent sterility at 10000 g/ha: read-out: Prozentsatz der Sterilität. From the text: Bei Weizen und Tritikale werden Einzelisolatoren verwendet.
Pflanzen von diploidem Roggen Sorte Chulpan werden in der V. oder VI.
Der Verbrauch an Sterilisationsmitteln beträgt 10 kg/ha.

Series [3] has as its system Tetraploider Roggen Sorte Belta. The series is described as follows: Field trial of gametocidal activity, tetraploid rye Belta. The note with it: 1% aqueous emulsion, 10 kg/ha; for response vs control in vivo at 10000 g/ha: control = 100, read-out: Prozentsatz des Ansetzens bei freier Bestäubung. Type of series: in vivo.
The test system of series [4] is Hirse Sorte Mironovskoe 94. As to the kind of experiment: Field trial of gametocidal activity, millet Mironovskoe 94. As to conditions: 1% aqueous emulsion, 10 kg/ha. It is filed as in vivo.
A further series can be described thus: in vivo. As to conditions: mouse, LD50, weisse Mäuse.
Series [5] relates to Diploider Roggen Sorte Gibrid 340/65. As to the kind of experiment: Field trial of gametocidal activity, diploid rye Gibrid 340/65. The note with it: Gibrid 340/65 (text: 312/65), 1% aqueous emulsion, 10 kg/ha; for Anzahl von Körnern der Ähre bei freier Bestäubung / Anzahl von Körnern der Ähre im Isolator / Prozentsatz der Sterilität: V. and VI. periods; for Prozentsatz des Ansetzens bei freier Bestäubung: control = 100.

The mark [6] stands for this setting: V. or VI. period of organogenesis.
Setting [7] is: V. or VI. period of organogenesis, read-out: Prozentsatz der Sterilität.
[8] abbreviates: read-out: Prozentsatz des Ansetzens bei freier Bestäubung, Chulpan, control = 100.
Setting [9] is: V. or VI. period, read-out: Prozentsatz der Sterilität.
Where [10] appears, read: V. or VI. period, listed as Beispiel 7I.

Like-named read-outs stand apart in the source and are kept apart here.

As to `O=[N+]([O-])c1ccc(OCC(O)CO)cc1` (stereo not drawn) [Beispiel 9, 3-(4'-Nitrophenoxy)-propandiol-I,2], in series [1] (setting [6]), the “Anzahl von Körnern der Ähre bei freier Bestäubung” value was 34,0 and the “Anzahl von Körnern der Ähre im Isolator” value is recorded as 4,8. For the same molecule, the percent sterility at 20000 g/ha in series [1] (setting [7]) came out at 85.2%. For the same molecule, the response vs control in vivo at 20000 g/ha in series [1] is 83.9%. Moreover, in series [2] (Chulpan), the “Anzahl von Körnern der Ähre bei freier Bestäubung” value is listed as 51,7, the “Anzahl von Körnern der Ähre im Isolator” value was 0,7 and the percent sterility at 10000 g/ha was found to be 98.7%. Besides, the response vs control in vivo at 10000 g/ha in series [2] (setting [8]) turned out to be 91.2%. Also, in series [3] (V. or VI. period), the “Anzahl von Körnern der Ähre bei freier Bestäubung” value is on record as 39,7 and the “Anzahl von Körnern der Ähre im Isolator” value is reported as 0,0. Further, the response vs control in vivo at 10000 g/ha in series [3] turned out to be 89.6%. Besides, in series [4] (V. or VI. period), the “Anzahl von Körnern der Rispe bei freier Bestäubung” value was 311,6 and the “Anzahl von Körnern der Rispe im Isolator” value is given as 0,0. Also, the percent pollen sterility at 10000 g/ha in series [4] (setting [9]) was 100%. The response vs control in vivo at 10000 g/ha in series [4] (control = 100, read-out: Prozentsatz des Ansetzens bei freier Bestäubung) came out at 82.1%. For the same molecule, in the series “in vivo”, the LD50 is 100 to 600 mg/kg. Moreover, in series [5], the “Anzahl von Körnern der Ähre bei freier Bestäubung” value is 45,0, the “Anzahl von Körnern der Ähre im Isolator” value was 0,0, the “Prozentsatz der Sterilität” value was determined as 100% and the “Prozentsatz des Ansetzens bei freier Bestäubung” value is given as 84,1%.

In turn, `Nc1ccc(C(=O)O)cc1` [Beispiel 38, Äthanolaminsalz der p-Aminobenzoesäure] registered an LD50 in the series “in vivo” of 2850 mg/kg. In series [5], the “Anzahl von Körnern der Ähre bei freier Bestäubung” value is 52,8, the “Anzahl von Körnern der Ähre im Isolator” value is given as 3,2, the “Prozentsatz der Sterilität” value is 93,4% and the “Prozentsatz des Ansetzens bei freier Bestäubung” value is recorded as 97,8%.

Consider `Nc1ccc(O)c(C(=O)O)c1` [Beispiel 51, Äthanolaminsalz der 5-Aminosalizylsäure], for which the “Anzahl von Körnern der Ähre bei freier Bestäubung” value in series [2] (Chulpan) is reported as 55,6. Moreover, the “Anzahl von Körnern der Ähre im Isolator” value was 2,1 in series [2] (Chulpan) and “I,I” in series [3] (V. or VI. period). In addition, the results for the percent sterility at 10000 g/ha in series [2] (Chulpan) and in series [3] (setting [9]) were 96% and 97.3%, respectively. The response vs control in vivo at 10000 g/ha in series [2] (setting [8]) amounted to 92.8%; in series [3], 99.5%. Besides, in “in vivo”, the LD50 is 2400 mg/kg.

As for `CCC(CO)(CO)CBr` [Beispiel 53, monobromsubstituiertem Etriol], in series [2] (Chulpan), the “Anzahl von Körnern der Ähre bei freier Bestäubung” value is given as 55,8, the “Anzahl von Körnern der Ähre im Isolator” value is 4,8 and the percent sterility at 10000 g/ha worked out at 91.8%. Also, in series [2] (Chulpan, control = 100, read-out: Prozentsatz des Ansetzens bei freier Bestäubung), the response vs control in vivo at 10000 g/ha worked out at 98.4%.

`O=C(COc1cc(F)c(Cl)cc1Cl)OCCCl` [Beispiel I0, β -Chloräthylester der 2,4-Dichlor-5-fluornhenoxyessig-säure]: in series [1] (setting [6]), the “Anzahl von Körnern der Ähre im Isolator” value is 0,6. The response vs control in vivo at 20000 g/ha in series [1] stood at 74.3%. The molecule also showed an LD50 in “in vivo” of 500 mg/kg.

Consider `O=C(O)c1ccccc1F` [Beispiel I4, Monoäthanolaminsalz der Orthofluorbenzoesäure], for which the “Anzahl von Körnern der Ähre bei freier Bestäubung” value in series [1] (setting [6]) is listed as 36,2; in series [2] (Chulpan, listed as Beispiel 56), 56,2; in series [3] (setting [10]), 43,5. The “Anzahl von Körnern der Ähre im Isolator” value in series [1] (setting [6]) is 5,3; in series [2] (Chulpan, listed as Beispiel 56), 0,1; in series [3] (setting [10]) it was 0,0. The pest or weed control at 20000 g/ha in series [1] (setting [7]) was 85.9%. Also, in series [1], the response vs control in vivo at 20000 g/ha amounted to 89.3%. Besides, the “Prozentsatz des Ansetzens bei freier Bestäubung” value is reported as 99,1% in series [2] (Chulpan, control = 100, listed as Beispiel 56) and 98,2% in series [3] (control = 100, listed as Beispiel 7I). In the series “in vivo”, this molecule had an LD50 of 700 mg/kg.

The term LD50 denotes the dose at which mortality reaches 50%. The low end stands for a more toxic substance, the high end for a less toxic substance.
